Measurements from ChEMBL document CHEMBL1201862, “PubChem BioAssay data set” (2004).
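Interpolation was linear, between the two tested concentrations surrounding the appropriate level; five concentrations were tested over 48 hours in 96-well plates. At the GI50, growth is halved.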 Calls of active or inactive are those of the source. Cut-off read from the data, not from the text of the source: active = GI50 up to about 1.1 µM and inactive = higher.

Legend:
Test in all cases: DTP human tumour cell line panel, 48 h
A549 = tested on: A549
HCC 2998 = tested on: HCC 2998
HCT-15 = tested on: HCT-15
HL-60 = tested on: HL-60
K562 = tested on: K562
LOX IMVI = tested on: LOX IMVI
M14 = tested on: M14
MCF7 = tested on: MCF7
NCI-H226 = tested on: NCI-H226
NCI-H460 = tested on: NCI-H460
NCI/ADR-RES = tested on: NCI/ADR-RES
OVCAR-4 = tested on: OVCAR-4
OVCAR-5 = tested on: OVCAR-5
OVCAR-8 = tested on: OVCAR-8
RPMI-8226 = tested on: RPMI-8226
SF-268 = tested on: SF-268
SK-OV-3 = tested on: SK-OV-3
SN12C = tested on: SN12C
U-251 = tested on: U-251
UACC-257 = tested on: UACC-257

## CC(C)NC(=O)OCc1c(COC(=O)NC(C)C)c(-c2cc[n+](COC(=O)Cc3ccccc3)cc2)n2c1CCC2
A549
  GI50: > 100 µM (inactive)
HCC 2998
  GI50: > 100 µM (inactive)
HCT-15
  GI50: > 100 µM
HL-60
  GI50: 31.9 µM (inactive)
K562
  GI50: > 100 µM (inactive)
LOX IMVI
  GI50: > 100 µM (inactive)
M14
  GI50: > 100 µM (inactive)
MCF7
  GI50: 67.5 µM (inactive)
NCI-H226
  GI50: > 100 µM (inactive)
NCI-H460
  GI50: 52 µM (inactive)
NCI/ADR-RES
  GI50: > 100 µM (inactive)
OVCAR-4
  GI50: > 100 µM (inactive)
OVCAR-5
  GI50: > 100 µM (inactive)
OVCAR-8
  GI50: > 100 µM (inactive)
RPMI-8226
  GI50: > 100 µM (inactive)
SF-268
  GI50: 55.1 µM (inactive)
SK-OV-3
  GI50: > 100 µM (inactive)
SN12C
  GI50: > 100 µM (inactive)
U-251
  GI50: > 100 µM (inactive)
UACC-257
  GI50: > 100 µM (inactive)
